Literature values, collected in US9185913B2, “10H-benzo[g]pteridine-2,4-dione derivatives, method for the production thereof, and use thereof” (TRIOPTOTEC GMBH, priority 2011, dated 2015).

What was measured:
[1] = tested on: microorganisms
[2] = tested on: microorganisms; remark: listed apart in the source

| Structure (SMILES) | Affinity for microorganisms [1] | Inactivation of microorganisms [2] |
| --- | --- | --- |
| Cc1cc2nc3c(=O)[nH]c(=O)nc-3n(C[C@H](O)[C@H](O)[C@H](O)CO)c2cc1C [riboflavin] | low | inadequate |
| CC(=O)OC[C@@H](OC(C)=O)[C@@H](OC(C)=O)[C@H](Cn1c2nc(=O)[nH]c(=O)c-2nc2cc(C)c(C)cc21)OC(C)=O [tetraacetylriboflavin] | low | inadequate |
